Measured values taken from ChEMBL document CHEMBL4823254, “Tetrahydroquinoline-Capped Histone Deacetylase 6 Inhibitor SW-101 Ameliorates Pathological Phenotypes in a Charcot-Marie-Tooth Type 2A Mouse Model” (J Med Chem, 2021).
Activity calls are given as the source filed them. No cut-off for these calls is given here.

How the values were obtained:
[1] = Stability in human pooled liver microsomes assessed as parent compound remaining measured at 60 mins in presence of NADPH by LC-MS/MS analysis; format: ADME, Microsome; details: pooled liver microsomes, read-out: Stabilty
[2] = Half life in human pooled liver microsomes assessed as parent compound remaining measured up to 60 mins in presence of NADPH by LC-MS/MS analysis; format: ADME, Microsome; details: pooled liver microsomes
Histone deacetylase 3 = Histone deacetylase 3 (Homo sapiens, UniProt O15379); experiment: Inhibition of recombinant human HDAC3 using Ac-GAK(Ac)-AMC as substrate preincubated for 10 mins followed by substrate addition and measured after 30 mins by fluorescence-based assay
Histone deacetylase 3, sequence (O15379 whole entry): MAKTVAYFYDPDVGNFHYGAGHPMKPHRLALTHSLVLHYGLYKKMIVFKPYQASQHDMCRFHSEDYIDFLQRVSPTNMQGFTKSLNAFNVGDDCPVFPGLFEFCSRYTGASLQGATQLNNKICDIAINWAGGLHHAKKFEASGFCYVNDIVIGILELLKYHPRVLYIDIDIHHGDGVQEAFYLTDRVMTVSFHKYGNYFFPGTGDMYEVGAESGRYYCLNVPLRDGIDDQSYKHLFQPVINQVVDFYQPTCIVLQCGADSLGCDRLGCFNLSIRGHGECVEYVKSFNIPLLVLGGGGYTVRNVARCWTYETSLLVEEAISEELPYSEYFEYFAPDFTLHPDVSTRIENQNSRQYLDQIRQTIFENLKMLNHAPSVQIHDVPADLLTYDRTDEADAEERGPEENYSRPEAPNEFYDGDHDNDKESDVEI

[3] = target: T1, Protein deacetylase HDAC6 (Homo sapiens, UniProt Q9UBN7); experiment: Inhibition of HDAC6 in human RPMI-8226 cells assessed as increase in tubulin acetylation incubated for 6 hrs by Western blot analysis; format: cell-based
T1 sequence (Q9UBN7 whole entry): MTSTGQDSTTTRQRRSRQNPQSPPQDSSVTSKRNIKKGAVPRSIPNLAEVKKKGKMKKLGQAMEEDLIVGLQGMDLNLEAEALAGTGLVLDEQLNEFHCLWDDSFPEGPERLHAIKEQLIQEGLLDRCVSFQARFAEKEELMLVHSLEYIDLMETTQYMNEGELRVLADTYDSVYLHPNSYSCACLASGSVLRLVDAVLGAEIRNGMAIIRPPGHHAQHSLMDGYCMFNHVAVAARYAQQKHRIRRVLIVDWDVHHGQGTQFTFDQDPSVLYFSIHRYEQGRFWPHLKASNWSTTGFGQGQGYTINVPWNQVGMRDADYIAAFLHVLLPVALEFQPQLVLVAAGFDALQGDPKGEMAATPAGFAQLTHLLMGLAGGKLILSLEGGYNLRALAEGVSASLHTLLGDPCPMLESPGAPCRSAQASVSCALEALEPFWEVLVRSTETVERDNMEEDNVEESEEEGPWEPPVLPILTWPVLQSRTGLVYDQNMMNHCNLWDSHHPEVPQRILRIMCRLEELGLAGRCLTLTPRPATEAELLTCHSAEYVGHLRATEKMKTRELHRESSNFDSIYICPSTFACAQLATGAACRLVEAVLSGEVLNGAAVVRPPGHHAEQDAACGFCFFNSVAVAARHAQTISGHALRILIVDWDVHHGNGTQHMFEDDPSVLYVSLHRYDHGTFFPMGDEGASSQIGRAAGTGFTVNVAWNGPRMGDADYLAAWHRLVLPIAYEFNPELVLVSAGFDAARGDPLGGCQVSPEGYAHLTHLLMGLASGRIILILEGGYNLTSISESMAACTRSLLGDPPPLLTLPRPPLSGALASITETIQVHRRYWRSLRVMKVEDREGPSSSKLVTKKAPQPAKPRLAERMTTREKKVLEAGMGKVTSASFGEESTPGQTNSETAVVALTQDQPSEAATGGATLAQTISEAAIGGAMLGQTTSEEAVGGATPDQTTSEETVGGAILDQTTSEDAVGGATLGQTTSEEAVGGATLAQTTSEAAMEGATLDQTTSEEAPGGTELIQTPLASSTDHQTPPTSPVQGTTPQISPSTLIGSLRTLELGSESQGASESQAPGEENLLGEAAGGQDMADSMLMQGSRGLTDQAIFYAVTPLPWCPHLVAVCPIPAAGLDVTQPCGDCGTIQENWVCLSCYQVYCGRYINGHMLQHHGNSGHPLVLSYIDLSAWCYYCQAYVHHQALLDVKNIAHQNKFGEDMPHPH

[4] = Half life in human plasma; format: ADME, cell-free
hERG (KCNH2) = hERG (KCNH2) (Homo sapiens, UniProt Q12809); experiment: Inhibition of human ERG expressed in CHO cells at 10 uM by automated patch clamp method relative to control; format: cell-based; details: CHO cells expressing human ERG
hERG (KCNH2), sequence (Q12809 whole entry): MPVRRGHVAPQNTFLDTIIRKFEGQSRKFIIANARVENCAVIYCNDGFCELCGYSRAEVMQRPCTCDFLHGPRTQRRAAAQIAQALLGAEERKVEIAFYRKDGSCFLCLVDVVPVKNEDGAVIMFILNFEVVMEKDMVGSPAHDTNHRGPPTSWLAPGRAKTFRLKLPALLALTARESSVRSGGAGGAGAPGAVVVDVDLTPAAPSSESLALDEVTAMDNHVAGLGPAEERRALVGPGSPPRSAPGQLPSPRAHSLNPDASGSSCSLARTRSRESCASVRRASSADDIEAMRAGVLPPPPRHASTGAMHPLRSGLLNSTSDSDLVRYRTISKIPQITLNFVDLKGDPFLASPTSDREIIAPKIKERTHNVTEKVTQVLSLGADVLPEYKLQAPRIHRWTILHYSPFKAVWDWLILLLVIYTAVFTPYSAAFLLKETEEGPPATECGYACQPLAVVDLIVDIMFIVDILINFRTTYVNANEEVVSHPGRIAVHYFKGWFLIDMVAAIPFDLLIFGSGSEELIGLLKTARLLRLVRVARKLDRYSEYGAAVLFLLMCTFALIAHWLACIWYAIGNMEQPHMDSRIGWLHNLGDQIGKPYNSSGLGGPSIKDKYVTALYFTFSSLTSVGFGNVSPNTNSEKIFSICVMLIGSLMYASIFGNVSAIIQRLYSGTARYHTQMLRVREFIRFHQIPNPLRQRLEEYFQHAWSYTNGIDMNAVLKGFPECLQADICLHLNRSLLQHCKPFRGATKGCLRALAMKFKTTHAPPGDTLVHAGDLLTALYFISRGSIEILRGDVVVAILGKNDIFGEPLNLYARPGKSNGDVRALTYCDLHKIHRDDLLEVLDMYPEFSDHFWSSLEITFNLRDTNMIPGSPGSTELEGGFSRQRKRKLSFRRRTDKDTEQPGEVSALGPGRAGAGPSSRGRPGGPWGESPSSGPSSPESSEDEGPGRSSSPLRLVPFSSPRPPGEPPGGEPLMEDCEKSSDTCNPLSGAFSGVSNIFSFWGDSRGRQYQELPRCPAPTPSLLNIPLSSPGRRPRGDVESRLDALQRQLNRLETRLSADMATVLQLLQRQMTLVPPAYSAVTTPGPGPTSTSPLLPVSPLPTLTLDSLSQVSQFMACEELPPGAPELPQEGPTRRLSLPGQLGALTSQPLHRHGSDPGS

[5] = Genotoxicity in Salmonella typhimurium TA1537 at 5 to 100 uM in presence of liver S9 fraction by Ames test; format: toxicity; details: salmonella enterica subsp. enterica serovar typhimurium, s9, 100 µM; dose 5-100 µM
[6] = Total AUC (0 to infinity) in C57BL/6J mouse plasma at 15 mg/kg, ip; format: ADME, organism-based; design: route intraperitoneal, time AUCmax, dose 15 mg/kg
[7] = target: T2, Protein deacetylase HDAC6 (Mus musculus) (UniProt Q9Z2V5); experiment: In vivo inhibition of HDAC6 in wild type mouse assessed as increase in alpha-tubulin acetylation in sciatic nerve tissue at 10 to 20 mg/kg, ip measured after 6 hrs by immunoblot analysis relative to control; format: functional, organism-based; design: scale not given: the % may be the effect or the level left; details: dose 10-20 mg/kg
T2 sequence (whole entry): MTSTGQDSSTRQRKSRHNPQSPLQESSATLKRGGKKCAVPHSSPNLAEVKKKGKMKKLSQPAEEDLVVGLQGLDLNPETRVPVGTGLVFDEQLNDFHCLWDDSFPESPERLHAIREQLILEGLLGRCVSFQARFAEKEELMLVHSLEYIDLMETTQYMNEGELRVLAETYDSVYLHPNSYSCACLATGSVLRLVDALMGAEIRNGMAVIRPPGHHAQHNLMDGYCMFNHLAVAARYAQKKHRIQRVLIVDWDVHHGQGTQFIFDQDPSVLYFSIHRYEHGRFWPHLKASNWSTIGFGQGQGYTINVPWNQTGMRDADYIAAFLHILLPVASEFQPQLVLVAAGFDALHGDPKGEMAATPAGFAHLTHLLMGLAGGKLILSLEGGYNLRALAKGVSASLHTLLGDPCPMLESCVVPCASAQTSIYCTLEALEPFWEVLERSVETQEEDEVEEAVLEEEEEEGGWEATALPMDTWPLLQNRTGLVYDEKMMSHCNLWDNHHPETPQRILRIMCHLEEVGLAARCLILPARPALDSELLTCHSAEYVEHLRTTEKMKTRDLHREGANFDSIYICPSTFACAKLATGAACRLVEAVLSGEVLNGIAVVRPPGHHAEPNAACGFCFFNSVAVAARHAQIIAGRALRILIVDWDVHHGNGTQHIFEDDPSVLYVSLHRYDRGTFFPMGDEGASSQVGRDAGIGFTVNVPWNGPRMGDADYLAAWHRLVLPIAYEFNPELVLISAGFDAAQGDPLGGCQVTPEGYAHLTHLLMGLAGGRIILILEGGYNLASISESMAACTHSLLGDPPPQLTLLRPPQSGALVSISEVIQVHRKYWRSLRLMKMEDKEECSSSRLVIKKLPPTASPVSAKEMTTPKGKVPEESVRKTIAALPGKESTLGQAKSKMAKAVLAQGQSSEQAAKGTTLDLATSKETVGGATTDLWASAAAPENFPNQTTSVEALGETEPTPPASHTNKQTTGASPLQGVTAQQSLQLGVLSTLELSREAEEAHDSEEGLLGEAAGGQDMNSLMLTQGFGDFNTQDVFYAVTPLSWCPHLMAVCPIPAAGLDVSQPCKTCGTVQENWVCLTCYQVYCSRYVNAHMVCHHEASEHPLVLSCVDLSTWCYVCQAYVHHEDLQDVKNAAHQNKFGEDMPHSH

[8] = target: T2, Protein deacetylase HDAC6 (Mus musculus); experiment: In vivo inhibition of HDAC6 in hMFN2-induced CMT2A transgenic mouse model assessed as increase in acetylated tubulin in distal sciatic nerve tissue at 20 mg/kg, ip qd administered for 12 weeks followed by treatment with compound dissolved in PBS/PEG400/Tween80/EtOH (50/35/10/5) wt% as vehicle by Western blot analysis; format: functional, organism-based

- remaining at 1 h [1]: 76.3%
- half-life [2]: 2.89 h
- IC50 (Histone deacetylase 3): 235 nM
- EC50 [3]: 140 nM
- half-life [4]: > 6.67 h
- AUC(0-inf) [6]: 1750 ng·h/mL
- Activity [7]: 150%
- inhibition [8]: Active
SMILES: NC(=O)c1ccc2c(c1)CCCN2Cc1ccc(C(=O)NO)cc1
- inhibition at 10 µM (hERG (KCNH2)): 30%
- Activity [5]: Non-Toxic
